The values that follow come from PubChem BioAssay (NCI).

Each structure is given as a SMILES string. Values joined by “and” are separate entries in the source; they are usually repeats but may differ in a detail not shown here. Equal values may be shown once.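 Where inhibition never reached the appropriate level, the endpoint shown equals the highest concentration tested. Otherwise, values were interpolated linearly from a five-concentration, 48-hour dose response in 96-well plates. GI50 = concentration required for 50% inhibition of growth. Definition used: TGI = concentration required for complete inhibition of growth.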 A value given as a limit tells only on which side of the number the result lay.

Holding throughout (test): growth of human tumour cells (NCI), 48 h
The subject of assay [1] is OVCAR-8 ovarian.
The test system of assay [2] is SK-MEL-28 melanoma.
Assay [3] deals with NCI/ADR-RES ovarian.
Assay [4] has as its system A498 renal.
The subject of assay [5] is MOLT-4 leukemia.
The test system of assay [6] is MDA-MB-435.
Assay [7] has as its system SW-620 colon.
In assay [8] the test system is MDA-MB-231 breast.
The test system of assay [9] is SK-MEL-2 melanoma.
The test system of assay [10] is EKVX NSCLC.

With `COc1cc(-c2cc(-c3nc4cc(Cl)c(Cl)cc4[nH]3)[nH]n2)cc(OC)c1OC`, the GI50 in assay [1] is 2.51 µM; in assay [2], 3.07 µM; in assay [3], 3.25 µM; in assay [4], 4.21 µM; in assay [5] it was 2.49 µM; in assay [6], 3.78 µM. Moreover, the GI50 is 4.47 µM in assay [7] and 4.14 µM in assay [8]. For the same molecule, the TGI was 7.48 µM in [1]; 12.3 µM in assay [2]; more than 100 µM in assay [3]; 28.3 µM in assay [4]; 6.29 µM in assay [5]; 14.6 µM in assay [6]. For the same molecule, the results for the TGI in [7] and in [8] were 19.1 µM and 20.1 µM, respectively.
`O=C1NC2(CCCC2)/C(=N\O)C12CCCC2`: the TGI in assay [1], in assay [2], in [9], in assay [10], in assay [4] and in assay [5] was more than 100 µM in each case. This molecule also came in with a TGI in assay [7] of more than 100 µM.
With `CC1(C(=O)NCCN(CCNC(=O)C2(C)CC3(C)CC(C)(C2)C(=O)NC3=O)CCNC(=O)C2(C)CC3(C)CC(C)(C2)C(=O)NC3=O)CC2(C)CC(C)(C1)C(=O)NC2=O` (stereo not drawn), the TGI in assay [1], in [2], in assay [9], in assay [10], in assay [4] and in [5] was more than 100 µM each time. The molecule further returned a TGI in assay [7] of more than 100 µM.
Consider `Cc1cc2c(=O)cc(-c3ccc(C(F)(F)F)cc3)oc2c(C(=O)O)c1C`, for which the TGI in [1], in [2], in [9], in assay [10], in assay [5] and in assay [7] was more than 100 µM in each case.
As for `C=CC[N+]1(CCO)CCN=C1CCCCCCCCCCCCC` (stereo not drawn), the GI50 in [2] is 1.75 µM; in assay [3] it was 1.65 µM; in assay [9], 2.04 µM; in [10], 1.62 µM; in [4], 2.09 µM; in [6] it was 1.72 µM. The GI50 in [7] was 1.63 µM; in assay [8], 1.61 µM. Besides, the TGI is 3.12 µM in assay [2]; 3.01 µM in [3]; 3.69 µM in assay [9]; 2.97 µM in assay [10]; 8.26 µM in [4]; 3.09 µM in assay [6]. For the same molecule, the TGI in assay [7] is 2.98 µM; in assay [8], 3.1 µM.
For the molecule `O=C1c2ccccc2C(=O)c2c(NC(=O)C(Cl)CCl)cccc21` (stereo not drawn), the TGI in [1] was more than 39.1 µM; in assay [2], 35.5 µM; in assay [3] it was more than 77.6 µM; in [9], 12.2 µM; in assay [10], 42.7 µM; in assay [4] it was 36.2 µM. In addition, the TGI in assay [6] turned out to be 23 µM; in assay [7] it was 14.7 µM; in assay [8], 18.4 µM.
Consider `O=C(c1ccccn1)c1nc(-c2ccc(Cl)c(Cl)c2)nc2ccc(Cl)cc12`, for which the TGI in assay [1], in assay [2], in assay [9], in assay [10], in assay [4] and in [5] was more than 100 µM each time. The molecule further displayed a TGI in [7] of more than 100 µM.
Turning to `Clc1ccccc1C1N2CCCCC2[C@@H]2c3[nH]c4ccccc4c3CCN12` (stereo partly drawn), the TGI is 39.9 µM in [1]; 34.2 µM in [2]; 34.1 µM in [9]; more than 100 µM in assay [10]; 30.3 µM in assay [4]; 82.6 µM in assay [5]. Further, the TGI in assay [7] is 31 µM.
`NCCn1ccc(NC(c2ccccc2)(c2ccccc2)c2ccccc2)nc1=O`: the TGI was more than 100 µM in assay [1]; 35 µM in assay [2]; 33.4 µM in [9]; 59.9 µM in assay [10]; more than 100 µM in [4]; 44.8 µM in [5]. For the same molecule, the TGI in [7] stood at 35.9 µM.
`COc1cc[c]([Sb]([Br])([CH]=C(C)C)([CH]=C(C)C)[CH]=C(C)C)cc1`: the GI50 is 8.15 µM in assay [1]; 2.98 µM in assay [2]; 5.79 µM in [9]; 2.28 µM in assay [10]; 28.8 µM in assay [4]; 10.6 µM in assay [5]. The GI50 in assay [7] was 6.46 µM. Also, the TGI in [1] is more than 100 µM; in assay [2], 93.5 µM; in assay [9], 51.3 µM; in assay [10] it was 39.6 µM; in [4], more than 100 µM; in assay [5] it was more than 100 µM. In [7], this molecule came in with a TGI of more than 100 µM.
For `C/C(=C1/N=C(c2ccccc2)OC1=O)c1ccc(C)cc1`, the TGI in [1], in assay [2], in assay [9], in assay [10], in assay [4] and in assay [5] was more than 100 µM each time. Also, the TGI in assay [6], in assay [7] and in [8] was more than 100 µM throughout.
In the case of `C/C=C/C(=O)[C@@H](O)C(C)C`, the TGI in assay [1], in assay [2], in [9], in [10], in [5] and in assay [7] was more than 100 µM each time.
Consider `CN(C)CCNC(=O)c1cccc2ccc(-c3cccnc3)nc12`, for which the TGI in assay [1] is more than 100 µM; in [2], 24.3 µM; in assay [9] it was 21.4 µM; in assay [10], 19.8 µM; in assay [4] it was 8.22 µM; in assay [5], more than 100 µM. The TGI in [7] was determined as 27.5 µM.
Consider `CCCCNC(=O)OCC(COc1ccccc1OC)OC(=O)NCCCC` (stereo not drawn), for which the TGI in assay [1], in assay [2], in assay [9], in assay [10], in assay [4] and in [5] was more than 100 µM in each case. Moreover, the TGI in [7] was more than 100 µM.
Regarding `CCOC(=O)C12CCSC1C1(C#N)C(C#N)=CC2(N=P(c2ccccc2)(c2ccccc2)c2ccccc2)n2c(=O)n(-c3ccccc3)c(=O)n21` (stereo not drawn), the TGI is more than 100 µM in assay [1]; 73.3 µM in assay [2]; more than 100 µM in [9]; more than 100 µM in assay [10]; more than 100 µM in [4]; 88.1 µM in [5]. The molecule further showed a TGI in assay [7] of more than 100 µM.
On to `COC1=C(C)C(=O)C2=C(C1=O)C(CO)N1C(C#N)C3CC4C(C1C2N1CCOC41)N3C` (stereo not drawn), for which the TGI in assay [1] is 0.257 µM and 0.404 µM and 0.0957 µM; in assay [3], 0.45 µM and 0.182 µM; in assay [9] it was 0.0451 µM and 0.038 µM and 0.0364 µM; in assay [7], 1.41 µM and 1.16 µM and 10.6 µM; in [8], 1.37 µM. Further, the GI50 in [10] is 0.00438 µM and < 0.0144 µM; in assay [7], 0.000811 µM.
Turning to `O=C(N[C@@H]1C=CCC[C@@H]1c1ccccc1)OCc1ccccc1`, the TGI in assay [1] came to 42.6 µM; in assay [2] it was 46.5 µM; in [9], 32.4 µM; in assay [10], 72.5 µM; in [4], 39 µM; in [5], 34.6 µM. Further, the TGI in assay [7] was 50.7 µM.
Regarding `O=c1c2[nH]c3ccccc3c2nc2n1CCS2`, the GI50 was more than 100 µM in [1]; more than 100 µM in assay [2]; more than 100 µM in assay [3]; more than 100 µM in assay [9]; 23.6 µM in assay [10]; 56 µM in assay [4]. Also, the GI50 in [6], in [7] and in [8] was more than 100 µM each time. Moreover, the TGI in [1], in assay [2], in assay [3], in assay [9], in [10] and in assay [4] was more than 100 µM throughout. Moreover, the TGI in assay [6], in assay [7] and in assay [8] was more than 100 µM each time.
Regarding `CCCCCCCCCCCCOC1C(CNCC2OC3OC(C)(C)OC3C2NC(=O)Nc2ccc(C(F)(F)F)cc2)OC2OC(C)(C)OC21` (stereo not drawn), the GI50 in assay [1] is 6.81 µM; in assay [2] it was 7.28 µM; in [3], 8.44 µM; in assay [9], 9.09 µM; in assay [10] it was 7.49 µM; in [4], 8.45 µM. Further, the GI50 is 5.27 µM in assay [6], 4.09 µM in [7] and 2.94 µM in assay [8]. Also, the TGI in assay [1] amounted to 18.1 µM; in assay [2] it was 14.5 µM; in [3] it was 17.1 µM; in assay [9], 19.3 µM; in assay [10], 14.5 µM; in assay [4] it was 15.5 µM. Besides, the TGI came to 13.4 µM in assay [6], 10.2 µM in assay [7] and 7.37 µM in assay [8].
With `Cc1ccc(/C=N/NS(=O)(=O)c2ccccc2)cc1`, the TGI in assay [1], in assay [2], in [9], in assay [10], in [4] and in assay [5] was more than 100 µM each time. Besides, in assay [7], the TGI is more than 100 µM.
In the case of `NC1=NN(c2ccccc2)C(=O)C1/C(=N\NC(=O)c1cc2ccccc2cc1O)C(=O)Nc1nc([N+](=O)[O-])cs1` (stereo not drawn), the TGI is 62.6 µM in assay [1]; more than 100 µM in assay [2]; more than 86.6 µM in assay [9]; more than 100 µM in assay [10]; more than 100 µM in assay [4]; 58.8 µM in assay [5]. The TGI in [7] is more than 82.3 µM.
For the molecule `CN(C)C(=S)/N=c1\ssc(=S)n1-c1ccccc1`, the TGI in assay [1] turned out to be 28.5 µM; in [2], 30.5 µM; in [9], 21.6 µM; in assay [10] it was 43.6 µM; in assay [4] it was 57.7 µM; in assay [7], 22.6 µM.
As to `O=C(O)c1c([N+](=O)[O-])cc(C(F)(F)F)cc1[N+](=O)[O-]`, the TGI in assay [1], in assay [2], in assay [9], in [10], in assay [4] and in assay [5] was more than 100 µM throughout. In assay [7], this molecule showed a TGI of more than 100 µM.
Turning to `COc1ccc2nc3ccccc3c(NCCCCCN(CCCl)CCCl)c2c1`, the TGI in [1] stood at 2.2 µM; in assay [2], 1.19 µM; in assay [10] it was 4.1 µM; in [7], 1.19 µM.
Consider `CCOc1ccccc1NC(=O)C(=O)C(C(=O)c1ccc2ccccc2c1)C1OC(=O)c2ccccc21` (stereo not drawn), for which the TGI came to 38.8 µM in assay [1]; 35.5 µM in assay [2]; 29.4 µM in assay [9]; 77.3 µM in assay [10]; 30.5 µM in [4]; 30.3 µM in [5]. This molecule came in with a TGI in assay [7] of 33.8 µM.
For `O=c1c2cc(Br)ccc2nc(-c2ccccc2)n1NCC1(O)OCC(O)C(O)C1O` (stereo not drawn), the TGI in assay [1], in [2], in [9], in assay [10], in assay [4] and in assay [5] was more than 100 µM in each case. Also, the TGI in [7] is more than 100 µM.
Turning to `O=C(c1ccco1)c1ccccc1C(=O)c1ccco1`, the TGI in [1], in [2], in [9], in assay [10], in [4] and in assay [5] was more than 100 µM each time. Further, in assay [7], the TGI is more than 100 µM.
For the molecule `CSc1c(S(C)=O)[nH]c2cc(Br)cc(Br)c12` (stereo not drawn), the TGI is 61.8 µM in [1]; 43.4 µM in assay [2]; 59.7 µM in assay [10]; 62.1 µM in assay [4]; 61.5 µM in assay [5]; more than 100 µM in [7].
For the molecule `C=CCC(N[C@@H](CO)c1ccccc1)c1ccccn1` (stereo partly drawn), the GI50 is more than 100 µM in assay [1]; more than 100 µM in assay [2]; more than 100 µM in assay [3]; more than 100 µM in assay [9]; 75 µM in [10]; 46.8 µM in [4]. In addition, the GI50 in assay [6], in assay [7] and in assay [8] was more than 100 µM throughout. Besides, the TGI in [1], in assay [2], in [3], in [9], in assay [10] and in [4] was more than 100 µM throughout. Further, the TGI in [6], in [7] and in assay [8] was more than 100 µM throughout.
